Data on 30 compounds can be found in patent US11028064B2, “Tricyclic heterocyclic derivatives and uses thereof” (AUCKLAND UNISERVICES LIMITED, priority 2016, dated 2021).

Where only a bound is given, the exact number is not on record here.

The target of experiment [1] is KDR (VEGFR2) (Homo sapiens (Human), UniProt P35968). As to the kind of experiment: SelectScreen Z'-LYTE kinase assay, Assay 540 for KDR (VEGFR2). Format: biochemical. The following applies: Z'-LYTE activity assay, 75 μM ATP (Km app); read-out: VEGFR2 Enzyme IC50.
Sequence of KDR (VEGFR2) (P35968 20-1356): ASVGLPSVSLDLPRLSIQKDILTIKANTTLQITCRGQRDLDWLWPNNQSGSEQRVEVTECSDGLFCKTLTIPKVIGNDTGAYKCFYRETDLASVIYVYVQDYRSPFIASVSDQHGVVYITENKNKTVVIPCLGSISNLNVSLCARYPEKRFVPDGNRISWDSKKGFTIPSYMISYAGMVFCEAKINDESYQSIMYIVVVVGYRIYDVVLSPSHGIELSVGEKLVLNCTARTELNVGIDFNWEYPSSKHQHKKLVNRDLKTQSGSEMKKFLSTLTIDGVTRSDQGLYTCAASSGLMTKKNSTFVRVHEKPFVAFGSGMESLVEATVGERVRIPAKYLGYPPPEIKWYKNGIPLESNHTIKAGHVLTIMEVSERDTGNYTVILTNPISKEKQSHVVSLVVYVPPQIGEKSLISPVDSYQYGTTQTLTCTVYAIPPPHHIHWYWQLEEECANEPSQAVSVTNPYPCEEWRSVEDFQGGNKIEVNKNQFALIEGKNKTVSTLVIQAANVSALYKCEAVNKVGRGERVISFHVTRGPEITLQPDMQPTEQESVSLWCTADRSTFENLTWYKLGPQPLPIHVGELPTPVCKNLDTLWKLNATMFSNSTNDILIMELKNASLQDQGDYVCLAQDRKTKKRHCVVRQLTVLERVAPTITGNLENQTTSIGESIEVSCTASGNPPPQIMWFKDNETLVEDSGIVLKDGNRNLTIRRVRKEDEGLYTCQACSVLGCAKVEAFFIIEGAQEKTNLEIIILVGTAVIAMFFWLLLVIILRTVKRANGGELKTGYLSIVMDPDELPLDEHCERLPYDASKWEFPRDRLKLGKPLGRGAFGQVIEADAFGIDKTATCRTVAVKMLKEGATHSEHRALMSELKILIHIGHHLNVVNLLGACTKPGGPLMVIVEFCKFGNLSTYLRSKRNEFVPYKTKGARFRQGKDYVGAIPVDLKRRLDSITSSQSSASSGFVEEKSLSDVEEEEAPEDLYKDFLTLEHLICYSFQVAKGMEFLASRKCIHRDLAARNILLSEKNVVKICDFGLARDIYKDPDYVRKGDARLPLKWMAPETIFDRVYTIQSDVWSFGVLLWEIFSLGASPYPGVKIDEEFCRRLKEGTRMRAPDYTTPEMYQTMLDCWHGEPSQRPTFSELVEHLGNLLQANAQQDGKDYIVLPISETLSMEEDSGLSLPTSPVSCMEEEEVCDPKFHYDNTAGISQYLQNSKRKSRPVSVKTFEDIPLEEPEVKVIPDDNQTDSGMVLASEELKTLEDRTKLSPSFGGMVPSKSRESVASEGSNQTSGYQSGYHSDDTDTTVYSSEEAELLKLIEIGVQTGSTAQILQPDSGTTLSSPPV
The target in experiment [2] is CSF-1R (FMS) (Homo sapiens (Human), UniProt P07333). The experiment in a line: SelectScreen Z'-LYTE kinase assay, Assay 336 for CSF-1R (FMS). Format: biochemical. Particulars: Z'-LYTE activity assay, 500 μM ATP (Km app); read-out: CSF-1R Enzyme IC50.
Sequence of CSF-1R (FMS) (P07333 20-972): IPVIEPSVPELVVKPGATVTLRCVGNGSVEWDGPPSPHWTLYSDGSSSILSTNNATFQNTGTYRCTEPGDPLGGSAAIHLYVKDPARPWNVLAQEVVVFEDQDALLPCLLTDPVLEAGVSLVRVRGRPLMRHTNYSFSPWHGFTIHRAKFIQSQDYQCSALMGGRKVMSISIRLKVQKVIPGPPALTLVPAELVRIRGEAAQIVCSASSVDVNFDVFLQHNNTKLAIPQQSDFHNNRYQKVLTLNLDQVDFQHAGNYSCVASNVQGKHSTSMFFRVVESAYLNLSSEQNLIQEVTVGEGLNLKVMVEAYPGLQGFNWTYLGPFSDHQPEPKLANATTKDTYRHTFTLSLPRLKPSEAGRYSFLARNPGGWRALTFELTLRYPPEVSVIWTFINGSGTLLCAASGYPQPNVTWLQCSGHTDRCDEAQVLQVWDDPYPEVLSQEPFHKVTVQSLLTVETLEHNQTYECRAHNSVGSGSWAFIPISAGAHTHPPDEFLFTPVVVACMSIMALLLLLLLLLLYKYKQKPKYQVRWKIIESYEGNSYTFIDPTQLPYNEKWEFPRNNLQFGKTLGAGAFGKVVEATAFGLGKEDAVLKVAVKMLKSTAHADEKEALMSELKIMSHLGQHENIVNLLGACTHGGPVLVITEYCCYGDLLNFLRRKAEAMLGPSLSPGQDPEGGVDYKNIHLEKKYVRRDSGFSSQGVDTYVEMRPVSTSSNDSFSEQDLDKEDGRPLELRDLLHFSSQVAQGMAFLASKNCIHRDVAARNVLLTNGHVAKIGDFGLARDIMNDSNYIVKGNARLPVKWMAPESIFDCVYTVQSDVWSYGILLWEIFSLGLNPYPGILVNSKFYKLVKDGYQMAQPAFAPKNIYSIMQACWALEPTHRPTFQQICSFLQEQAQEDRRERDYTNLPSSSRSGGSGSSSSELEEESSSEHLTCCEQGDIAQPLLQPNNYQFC

With `CN(C)CCOc1cccc2c(=O)c3ccc(Oc4cccc(C(=O)Nc5ccccc5)c4)cc3oc12` [Example 2, 3-({5-[2-(Dimethylamino)ethoxy]-9-oxo-9H-xanthen-3-yl}oxy)-N-phenylbenzamide], the results for the half-inhibitory concentration (IC50) in experiment [1] and in experiment [2] were 1000 to 10000 nM and less than 100 nM, respectively.
Take `Cc1cc(OCCN(C)C)c2oc3cc(Oc4cccc(C(=O)Nc5ccccc5)c4)ccc3c(=O)c2c1` [Example 5, 3-((5-(2-(Dimethylamino)ethoxy)-7-methyl-9-oxo-9H-xanthen-3-yl)oxy)-N-phenyl-benzamide]: in experiment [1], the IC50 was 1000 to 10000 nM.
As to `COc1ccc(Oc2ccc3c(=O)c4cc(C)cc(OCCN(C)C)c4oc3c2)cn1` [Example 8, 4-(2-(Dimethylamino)ethoxy)-6-((6-methoxypyridin-3-yl)oxy)-2-methyl-9H-xanthen-9-one], the IC50 in experiment [1] is more than 10000 nM; in experiment [2], 100 to 1000 nM.
The like results for `COc1cc(Oc2ccc3c(=O)c4cc(C)cc(OCCN(C)C)c4oc3c2)cnc1OC` [Example 9, 6-((5,6-Dimethoxypyridin-3-yl)oxy)-4-(2-(dimethylamino)ethoxy)-2-methyl-9H-xanthen-9-one] were, in that order, more than 10000 nM and less than 100 nM.
In the same order, the values of `Cc1cc(OCCN(C)C)c2oc3cc(Oc4ccc(NCc5ccc(OC(F)(F)F)cc5)nc4)ccc3c(=O)c2c1` [Example 15, 4-(2-(Dimethylamino)ethoxy)-2-methyl-6-((6-((4-(trifluoromethoxy)benzyl)amino)-pyridin-3-yl)oxy)-9H-xanthen-9-one] are more than 10000 nM and less than 100 nM.
In the same order, the values of `Cc1cc(OCCN(C)C)c2oc3cc(Oc4ccc(N)nc4)ccc3c(=O)c2c1` [Example 17, 6-((6-Aminopyridin-3-yl)oxy)-4-(2-(dimethylamino)ethoxy)-2-methyl-9H-xanthen-9-one] are more than 10000 nM and 100 to 1000 nM.
With `COc1ccc(Cc2ccc3c(=O)c4cc(C)cc(OCCN(C)C)c4oc3c2)cn1` [Example 19, 4-(2-(Dimethylamino)ethoxy)-6-((6-methoxypyridin-3-yl)methyl)-2-methyl-9H-xanthen-9-one], the figures for the IC50 in experiment [1] and in experiment [2] were more than 10000 nM and 100 to 1000 nM, respectively.
The like results for `Cc1cc(OCCN(C)C)c2oc3cc(Oc4ccc(NCC(=O)NC5CCCC5)nc4)ccc3c(=O)c2c1` [Example 25, N-Cyclopentyl-2-((5-((5-(2-(dimethylamino)ethoxy)-7-methyl-9-oxo-9H-xanthen-3-yl)oxy)pyridin-2-yl)amino)acetamide] were, in that order, more than 10000 nM and less than 100 nM.
In the same order, the values of `CNCCOc1cc(C)cc2c(=O)c3ccc(Oc4ccc(CCC(=O)NC5CCCC5)nc4)cc3oc12` [Example 29, N-Cyclopentyl-3-(5-((7-methyl-5-(2-(methylamino)ethoxy)-9-oxo-9H-xanthen-3-yl)oxy)pyridin-2-yl)propanamide] are more than 10000 nM and less than 100 nM.
In the same order, the values of `Cc1cc(OCCCN(C)C)c2oc3cc(Oc4ccccc4)ccc3c(=O)c2c1` [Example 30, 4-[3-(Dimethylamino)propoxy]-2-methyl-6-phenoxy-9H-xanthen-9-one] are 1000 to 10000 nM and 100 to 1000 nM.
Take `Cc1cc(OCCCN2CCOCC2)c2oc3cc(Oc4ccccc4)ccc3c(=O)c2c1` [Example 33, 2-Methyl-4-(3-morpholinopropoxy)-6-phenoxy-9H-xanthen-9-one]: the IC50 is more than 10000 nM in experiment [1] and 100 to 1000 nM in experiment [2].
In the same order, the values of `Cc1cc(OCCCCN(C)C)c2oc3cc(Oc4ccccc4)ccc3c(=O)c2c1` [Example 34, 4-(4-(Dimethylamino)butoxy)-2-methyl-6-phenoxy-9H-xanthen-9-one] are 1000 to 10000 nM and 100 to 1000 nM.
The like results for `Cc1cc(OCCC2CCN(C)CC2)c2oc3cc(Oc4ccccc4)ccc3c(=O)c2c1` [Example 36, 2-Methyl-4-(2-(1-methylpiperidin-4-yl)ethoxy)-6-phenoxy-9H-xanthen-9-one] were, in that order, 1000 to 10000 nM and 100 to 1000 nM.
The like results for `Cc1cc(OCCN(C)C)c2oc3cc(Sc4ccc(CCC(=O)NC5CCCC5)nc4)ccc3c(=O)c2c1` [Example 43, N-Cyclopentyl-3-(5-((5-(2-(dimethylamino)ethoxy)-7-methyl-9-oxo-9H-xanthen-3-yl)thio)pyridin-2-yl)propanamide] were, in that order, 1000 to 10000 nM and less than 100 nM.
Consider `Cc1cc(OCCN(C)C)cc2c(=O)c3ccc(Oc4ccc(CCC(=O)NC5CCCC5)nc4)cc3oc12` [Example 45, N-Cyclopentyl-3-(5-((7-(2-(dimethylamino)ethoxy)-5-methyl-9-oxo-9H-xanthen-3-yl)oxy)pyridin-2-yl)propanamide], for which the IC50 in experiment [1] was 1000 to 10000 nM; in experiment [2], less than 100 nM.
Consider `Cc1cc(OCCN(C)C)c2oc3cc(Oc4cccnc4)ccc3c(=O)c2c1` [Example 53, 4-(2-(Dimethylamino)ethoxy)-2-methyl-6-(pyridin-3-yloxy)-9H-xanthen-9-one], for which the IC50 was more than 10000 nM in experiment [1] and 100 to 1000 nM in experiment [2].
In the same order, the values of `Cc1cc(OCCN2CCN(CC(F)(F)F)CC2)c2oc3cc(Oc4ccc(CCC(=O)NC5CCCC5)nc4)ccc3c(=O)c2c1` [Example 59, N-Cyclopentyl-3-(5-((7-methyl-9-oxo-5-(2-(4-(2,2,2-trifluoroethyl)piperazin-1-yl)ethoxy)-9H-xanthen-3-yl)oxy)pyridin-2-yl)propanamide] are more than 10000 nM and less than 100 nM.
For the compound `Cc1cc(OCCN2C[C@@H](C)N[C@@H](C)C2)c2oc3cc(Oc4ccc(CCC(=O)NC5CCCC5)nc4)ccc3c(=O)c2c1` [Example 61, N-Cyclopentyl-3-(5-((5-(2-((3S,5R)-3,5-dimethylpiperazin-1-yl)ethoxy)-7-methyl-9-oxo-9H-xanthen-3-yl)oxy)pyridin-2-yl)propanamide], the IC50 in experiment [2] is less than 100 nM.
Still for that read-out and setting: to `Cc1cc(OCCCN(C)C)c2oc3cc(Oc4ccc(CCC(=O)NC5CCCC5)nc4)ccc3c(=O)c2c1` [Example 63, N-Cyclopentyl-3-(5-((5-(3-(dimethylamino)propoxy)-7-methyl-9-oxo-9H-xanthen-3-yl)oxy)pyridin-2-yl)propanamide] belongs less than 100 nM; to `Cc1cc(OCCCN2[C@H](C)CCC[C@@H]2C)c2oc3cc(Oc4ccc(CCC(=O)NC5CCCC5)nc4)ccc3c(=O)c2c1` [Example 64, N-Cyclopentyl-3-(5-((5-(3-((2R,6S)-2,6-dimethylpiperidin-1-yl)propoxy)-7-methyl-9-oxo-9H-xanthen-3-yl)oxy)pyridin-2-yl)propanamide], less than 100 nM.
For the compound `CCN1CCN(CCCOc2cc(C)cc3c(=O)c4ccc(Oc5ccc(CCC(=O)NC6CCCC6)nc5)cc4oc23)CC1` [Example 65, N-Cyclopentyl-3-(5-((5-(3-(4-ethylpiperazin-1-yl)propoxy)-7-methyl-9-oxo-9H-xanthen-3-yl)oxy)pyridin-2-yl)propanamide], in experiment [2], the IC50 is less than 100 nM.
`Cc1cc(OCCCN2C[C@@H](C)N(C)[C@@H](C)C2)c2oc3cc(Oc4ccc(CCC(=O)NC5CCCC5)nc4)ccc3c(=O)c2c1` [Example 68, N-Cyclopentyl-3-(5-((7-methyl-9-oxo-5-(3-((3S,5R)-3,4,5-trimethylpiperazin-1-yl)propoxy)-9H-xanthen-3-yl)oxy)pyridin-2-yl)propanamide]: in experiment [2], the IC50 was less than 100 nM.
Regarding `Cc1cc(OCCCN2CCOCC2)c2oc3cc(Oc4ccc(CCC(=O)NC5CCCC5)nc4)ccc3c(=O)c2c1` [Example 69, N-Cyclopentyl-3-[5-({7-methyl-5-[3-(4-morpholinyl)propoxy]-9-oxo-9H-xanthen-3-yl}oxy)-2-pyridinyl]propanamide], the half-inhibitory concentration (IC50) in experiment [2] was less than 100 nM.
Same read-out and setting: to `Cc1cc(OC2CCN(C)C2)c2oc3cc(Oc4ccc(CCC(=O)NC5CCCC5)nc4)ccc3c(=O)c2c1` (stereo not shown) [Example 70, N-Cyclopentyl-3-(5-((7-methyl-5-((1-methylpyrrolidin-3-yl)oxy)-9-oxo-9H-xanthen-3-yl)oxy)pyridin-2-yl)propanamide] belongs less than 100 nM.
Turning to `Cc1cc(OC2CCN(C)CC2)c2oc3cc(Oc4ccc(CCC(=O)NC5CCCC5)nc4)ccc3c(=O)c2c1` [Example 71, N-Cyclopentyl-3-[5-({7-methyl-5-[(1-methyl-4-piperidinyl)oxy]-9-oxo-9H-xanthen-3-yl}oxy)-2-pyridinyl]propanamide], in experiment [1], the IC50 was 1000 to 10000 nM.
On to `Cc1cc(OC[C@H]2CCCN2C)c2oc3cc(Oc4ccc(CCC(=O)NC5CCCC5)nc4)ccc3c(=O)c2c1` [Example 72, (R)—N-Cyclopentyl-3-(5-((7-methyl-5-((1-methylpyrrolidin-2-yl)methoxy)-9-oxo-9H-xanthen-3-yl)oxy)pyridin-2-yl)propanamide], for which, in experiment [2], the IC50 is less than 100 nM.
Consider `Cc1cc(OC[C@@H]2CCCN2C)c2oc3cc(Oc4ccc(CCC(=O)NC5CCCC5)nc4)ccc3c(=O)c2c1` [Example 73, (S)—N-Cyclopentyl-3-(5-((7-methyl-5-((1-methylpyrrolidin-2-yl)methoxy)-9-oxo-9H-xanthen-3-yl)oxy)pyridin-2-yl)propanamide], for which the IC50 in experiment [2] was less than 100 nM.
The same measure, in the same setting: to `Cc1cc(OCC2CCCCN2C)c2oc3cc(Oc4ccc(CCC(=O)NC5CCCC5)nc4)ccc3c(=O)c2c1` (stereo not shown) [Example 74, N-Cyclopentyl-3-(5-((7-methyl-5-((1-methylpiperidin-2-yl)methoxy)-9-oxo-9H-xanthen-3-yl)oxy)pyridin-2-yl)propanamide] belongs less than 100 nM.
Still for that read-out and setting: to `Cc1cc(OCCC2CCCN2C)c2oc3cc(Oc4ccc(CCC(=O)NC5CCCC5)nc4)ccc3c(=O)c2c1` (stereo not shown) [Example 75, N-Cyclopentyl-3-(5-((7-methyl-5-(2-(1-methylpyrrolidin-2-yl)ethoxy)-9-oxo-9H-xanthen-3-yl)oxy)pyridin-2-yl)propanamide] belongs less than 100 nM; to `Cc1cc(OCC2CCCN(C)C2)c2oc3cc(Oc4ccc(CCC(=O)NC5CCCC5)nc4)ccc3c(=O)c2c1` (stereo not shown) [Example 76, N-Cyclopentyl-3-(5-((7-methyl-5-((1-methylpiperidin-3-yl)methoxy)-9-oxo-9H-xanthen-3-yl)oxy)pyridin-2-yl)propanamide], less than 100 nM.

By IC50 is commonly meant the concentration that gives 50% inhibition.
